Laboratory results reported in PubChem BioAssay (NCI).
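Briefly, cells in 96-well plates were exposed to five compound concentrations for 48 h, and endpoints were estimated by linear interpolation. Abbreviation: GI50, concentration required for 50% inhibition of growth. TGI denotes the concentration required for complete inhibition of growth.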

What was measured:
Assay in all cases: NCI tumour cell line growth inhibition, 48 h
COLO 205 colon = system: COLO 205 colon
SF-268 CNS = system: SF-268 CNS
UO-31 renal = system: UO-31 renal
LOX IMVI melanoma = system: LOX IMVI melanoma
A498 renal = system: A498 renal
IGROV1 ovarian = system: IGROV1 ovarian
HOP-92 NSCLC = system: HOP-92 NSCLC
SW-620 colon = system: SW-620 colon
PC-3 prostate = system: PC-3 prostate
ACHN renal = system: ACHN renal
MCF7 breast = system: MCF7 breast
SK-MEL-5 melanoma = system: SK-MEL-5 melanoma
SNB-19 CNS = system: SNB-19 CNS
OVCAR-4 ovarian = system: OVCAR-4 ovarian
CAKI-1 renal = system: CAKI-1 renal
UACC-62 melanoma = system: UACC-62 melanoma
SNB-75 CNS = system: SNB-75 CNS
MALME-3M melanoma = system: MALME-3M melanoma
SK-OV-3 ovarian = system: SK-OV-3 ovarian
SK-MEL-2 melanoma = system: SK-MEL-2 melanoma
RXF 393 renal = system: RXF 393 renal
MOLT-4 leukemia = system: MOLT-4 leukemia
DU-145 prostate = system: DU-145 prostate
CCRF-CEM leukemia = system: CCRF-CEM leukemia
UACC-257 melanoma = system: UACC-257 melanoma
HCC-2998 colon = system: HCC-2998 colon
HT29 colon = system: HT29 colon
OVCAR-8 ovarian = system: OVCAR-8 ovarian
U251 CNS = system: U251 CNS
A549 NSCLC = system: A549 NSCLC
SK-MEL-28 melanoma = system: SK-MEL-28 melanoma
OVCAR-3 ovarian = system: OVCAR-3 ovarian
MDA-MB-231 breast = system: MDA-MB-231 breast
HS 578T breast = system: HS 578T breast
SF-295 CNS = system: SF-295 CNS
786-0 renal = system: 786-0 renal
HOP-62 NSCLC = system: HOP-62 NSCLC
HCT-116 colon = system: HCT-116 colon
HCT-15 colon = system: HCT-15 colon
KM12 colon = system: KM12 colon
BT-549 breast = system: BT-549 breast
SN12C renal = system: SN12C renal
T-47D breast = system: T-47D breast
HL-60(TB) leukemia = system: HL-60(TB) leukemia
TK-10 renal = system: TK-10 renal
SR leukemia = system: SR leukemia
NCI/ADR-RES ovarian = system: NCI/ADR-RES ovarian
SF-539 CNS = system: SF-539 CNS
NCI-H522 lung = system: NCI-H522 lung
RPMI-8226 leukemia = system: RPMI-8226 leukemia
K-562 leukemia = system: K-562 leukemia
NCI-H23 lung = system: NCI-H23 lung
MDA-MB-435 = system: MDA-MB-435
EKVX NSCLC = system: EKVX NSCLC
OVCAR-5 ovarian = system: OVCAR-5 ovarian
NCI-H226 lung = system: NCI-H226 lung
NCI-H460 lung = system: NCI-H460 lung

CCN(CC)c1ccc(/C=N/NC(=O)c2ccc(S(N)(=O)=O)cc2)cc1
GI50 (COLO 205 colon): 437 nM
TGI (COLO 205 colon): 19000 nM
GI50 (SF-268 CNS): 328 nM
TGI (SF-268 CNS): 25800 nM
GI50 (UO-31 renal): 487 nM
TGI (UO-31 renal): 24000 nM
GI50 (LOX IMVI melanoma): 271 nM
TGI (LOX IMVI melanoma): 4510 nM
GI50 (A498 renal): 4260 nM
TGI (A498 renal): 29300 nM
GI50 (IGROV1 ovarian): 690 nM
TGI (IGROV1 ovarian): > 100000 nM
GI50 (HOP-92 NSCLC): 430 nM
TGI (HOP-92 NSCLC): 14600 nM
GI50 (SW-620 colon): 597 nM
TGI (SW-620 colon): > 100000 nM
GI50 (PC-3 prostate): 469 nM
TGI (PC-3 prostate): 73400 nM
GI50 (ACHN renal): 605 nM
TGI (ACHN renal): 22300 nM
GI50 (MCF7 breast): 488 nM
TGI (MCF7 breast): > 100000 nM
GI50 (SK-MEL-5 melanoma): 1420 nM
TGI (SK-MEL-5 melanoma): > 100000 nM
GI50 (SNB-19 CNS): 1120 nM
TGI (SNB-19 CNS): > 64800 nM
GI50 (OVCAR-4 ovarian): 397 nM
TGI (OVCAR-4 ovarian): > 77600 nM
GI50 (CAKI-1 renal): 488 nM
TGI (CAKI-1 renal): 25800 nM
GI50 (UACC-62 melanoma): 499 nM
TGI (UACC-62 melanoma): 8780 nM
GI50 (SNB-75 CNS): 496 nM
TGI (SNB-75 CNS): 5910 nM
GI50 (MALME-3M melanoma): 856 nM
TGI (MALME-3M melanoma): 11300 nM
GI50 (SK-OV-3 ovarian): 533 nM
TGI (SK-OV-3 ovarian): 21400 nM
GI50 (SK-MEL-2 melanoma): 3170 nM
TGI (SK-MEL-2 melanoma): 20700 nM
GI50 (RXF 393 renal): 1100 nM
TGI (RXF 393 renal): 3800 nM
GI50 (MOLT-4 leukemia): 373 nM
TGI (MOLT-4 leukemia): 15000 nM
GI50 (DU-145 prostate): 828 nM
TGI (DU-145 prostate): > 58600 nM
GI50 (CCRF-CEM leukemia): 178 nM
TGI (CCRF-CEM leukemia): > 100000 nM
GI50 (UACC-257 melanoma): 869 nM
TGI (UACC-257 melanoma): 7900 nM
GI50 (HCC-2998 colon): 612 nM
TGI (HCC-2998 colon): 51000 nM
GI50 (HT29 colon): 614 nM
TGI (HT29 colon): 17300 nM
GI50 (OVCAR-8 ovarian): 406 nM
TGI (OVCAR-8 ovarian): > 52600 nM
GI50 (U251 CNS): 268 nM
TGI (U251 CNS): 18700 nM
GI50 (A549 NSCLC): 1780 nM
TGI (A549 NSCLC): > 100000 nM
GI50 (SK-MEL-28 melanoma): 495 nM
TGI (SK-MEL-28 melanoma): > 67400 nM
GI50 (OVCAR-3 ovarian): 244 nM
TGI (OVCAR-3 ovarian): > 100000 nM
GI50 (MDA-MB-231 breast): 525 nM
TGI (MDA-MB-231 breast): 64300 nM
GI50 (HS 578T breast): 2370 nM
TGI (HS 578T breast): 40800 nM
GI50 (SF-295 CNS): 739 nM
TGI (SF-295 CNS): 18300 nM
GI50 (786-0 renal): 610 nM
TGI (786-0 renal): 4670 nM
GI50 (HOP-62 NSCLC): 338 nM
TGI (HOP-62 NSCLC): 11900 nM
GI50 (HCT-116 colon): 324 nM
TGI (HCT-116 colon): 19200 nM
GI50 (HCT-15 colon): 419 nM
TGI (HCT-15 colon): 44200 nM
GI50 (KM12 colon): 811 nM
TGI (KM12 colon): > 63300 nM
GI50 (BT-549 breast): 1000 nM
TGI (BT-549 breast): 8290 nM
GI50 (SN12C renal): 957 nM
TGI (SN12C renal): > 100000 nM
GI50 (T-47D breast): 686 nM
TGI (T-47D breast): > 72300 nM
GI50 (HL-60(TB) leukemia): 255 nM
TGI (HL-60(TB) leukemia): 4380 nM
GI50 (TK-10 renal): 1760 nM
TGI (TK-10 renal): 47800 nM
GI50 (SR leukemia): 83.9 nM
TGI (SR leukemia): 3070 nM
GI50 (NCI/ADR-RES ovarian): 3110 nM
TGI (NCI/ADR-RES ovarian): > 100000 nM
GI50 (SF-539 CNS): 488 nM
TGI (SF-539 CNS): 8110 nM
GI50 (NCI-H522 lung): 403 nM
TGI (NCI-H522 lung): 23200 nM
GI50 (RPMI-8226 leukemia): 2840 nM
TGI (RPMI-8226 leukemia): 13700 nM
GI50 (K-562 leukemia): 479 nM
TGI (K-562 leukemia): > 100000 nM
GI50 (NCI-H23 lung): 2110 nM
TGI (NCI-H23 lung): > 100000 nM
GI50 (MDA-MB-435): 975 nM
TGI (MDA-MB-435): > 100000 nM
GI50 (EKVX NSCLC): 782 nM
TGI (EKVX NSCLC): > 82100 nM
GI50 (OVCAR-5 ovarian): 2580 nM
TGI (OVCAR-5 ovarian): > 100000 nM
GI50 (NCI-H226 lung): 1390 nM
TGI (NCI-H226 lung): 23900 nM
GI50 (NCI-H460 lung): 510 nM
TGI (NCI-H460 lung): 10400 nM
